The assay is described as follows: Inhibition of HDLP.

pIC50, pKi: −log10 of the molar value.

Compound `C[C@H](O)C(=O)CCCCC[C@@H]1NC(=O)[C@H]2CCCN2C(=O)[C@H](Cc2ccccc2)NC(=O)[C@H](Cc2ccc(Cl)cc2)NC1=O` gave a negative-log Ki (pKi) of 7.06.
The same measure, in the same setting: the figure for `C[C@H](O)C(=O)CCCCC[C@@H]1NC(=O)[C@@H]2CCCN2C(=O)[C@H](Cc2ccccc2)NC(=O)C2(CCCCC2)NC1=O` is 8.17; for `C[C@H](O)C(=O)CCCCC[C@@H]1NC(=O)[C@@H]2CCCN2C(=O)[C@H](Cc2ccccc2)NC(=O)[C@H](Cc2cnc[nH]2)NC1=O` it is 7.70.
Take `CC[C@]1(C)NC(=O)[C@H](CCCCCC(=O)[C@@H](C)O)NC(=O)[C@@H]2CC(C)(C)CN2C(=O)[C@H](Cc2ccccc2)NC1=O`: the pKi was 7.34.
`C[C@H](O)C(=O)CCCCC[C@@H]1NC(=O)[C@@H]2CCCN2C(=O)[C@H](Cc2ccccc2)NC(=O)C(C)(C)NC1=O`: the pKi was 7.28.
Turning to `C[C@@H](O)C(=O)CCCCC[C@@H]1NC(=O)[C@@H]2CCCN2C(=O)[C@H](Cc2ccccc2)NC(=O)[C@H](Cc2c[nH]c3ccccc23)NC1=O`, the negative logarithm of the Ki (pKi) is 8.11.
As for `C[C@H](O)C(=O)CCCCC[C@@H]1NC(=O)[C@H]2CCCN2C(=O)[C@H](Cc2ccccc2)NC(=O)[C@H](Cc2cnc[nH]2)NC1=O`, the pIC50 is 3.46 and the negative logarithm of the Ki (pKi) is 7.47.
The like results for `C[C@H](O)C(=O)CCCCC[C@@H]1NC(=O)[C@H]2CCCN2C(=O)[C@H](Cc2ccccc2)NC(=O)C(C)(C)NC1=O` were, in that order, 6.48 and 6.71.
The like results for `C[C@@H](O)C(=O)CCCCC[C@@H]1NC(=O)[C@H]2CCCN2C(=O)[C@H](Cc2ccccc2)NC(=O)[C@H](Cc2ccccc2)NC1=O` were, in that order, 6.55 and 7.43.
Compound `C[C@@H](O)C(=O)CCCCC[C@@H]1NC(=O)[C@@H]2CCCN2C(=O)[C@H](Cc2ccccc2)NC(=O)[C@H](Cc2ccccc2)NC1=O` had a pKi of 7.09.
In turn, `CC[C@@H]1NC(=O)[C@H](CCCCCC(=O)[C@H](C)O)NC(=O)[C@H]2CCCN2C(=O)[C@H](Cc2ccccc2)NC1=O` showed a pIC50 of 6.00 and a pKi of 6.96.
`C[C@@H](O)C(=O)CCCCC[C@@H]1NC(=O)[C@@H]2CCCN2C(=O)[C@H](Cc2ccccc2)NC(=O)C(C)(C)NC1=O`: the negative logarithm of the Ki (pKi) was 7.97.
The same measure, in the same setting: to `CC[C@@H]1NC(=O)[C@H](CCCCCC(=O)[C@H](C)O)NC(=O)[C@@H]2CCCN2C(=O)[C@H](Cc2ccccc2)NC1=O` belongs 7.27.
The compound `C[C@@H](O)C(=O)CCCCC[C@@H]1NC(=O)[C@H]2CCCN2C(=O)[C@H](Cc2ccccc2)NC(=O)C(C)(C)NC1=O` gave a pIC50 of 7.52 and a pKi of 7.79.
The matching figures for `C[C@@H](O)C(=O)CCCCC[C@@H]1NC(=O)[C@H]2CCCN2C(=O)[C@H](Cc2ccccc2)NC(=O)[C@H](Cc2c[nH]c3ccccc23)NC1=O`: 7.70 and 9.01.
Regarding `C[C@H](O)C(=O)CCCCC[C@@H]1NC(=O)[C@@H]2CCCN2C(=O)[C@H](Cc2ccccc2)NC(=O)[C@H](Cc2ccc(Cl)cc2)NC1=O`, the pKi was 7.63.
`C[C@H](O)C(=O)CCCCC[C@@H]1NC(=O)[C@H]2CCCN2C(=O)[C@H](Cc2ccccc2)NC(=O)C2(CCCCC2)NC1=O`: the pIC50 is 6.17 and the negative logarithm of the Ki (pKi) is 7.60.
As for `CC[C@]1(C)NC(=O)[C@H](CCCCCC(=O)[C@@H](C)O)NC(=O)[C@@H]2CCCN2C(=O)[C@H](Cc2ccccc2)NC1=O`, the pKi is 7.90.
As for `CC[C@]1(C)NC(=O)[C@H](CCCCCC(=O)[C@@H](C)O)NC(=O)[C@H]2CCCN2C(=O)[C@H](Cc2ccccc2)NC1=O`, the negative-log IC50 (pIC50) was 7.30 and the negative-log Ki (pKi) was 7.73.
The like results for `CC[C@]1(C)NC(=O)[C@H](CCCCCC(=O)[C@@H](C)O)NC(=O)[C@H]2CC(C)(C)CN2C(=O)[C@H](Cc2ccccc2)NC1=O` were, in that order, 7.05 and 7.22.

A word on the pKi: it is the Ki on a negative log10 scale, so that one unit is a factor of ten. Read a high pKi as a small Ki. As a reminder, the pIC50 is the IC50 on a negative log10 scale, so that one unit is a factor of ten.

The record behind these values is ChEMBL document CHEMBL1151789, “Molecular modeling studies toward the structural optimization of new cyclopeptide-based HDAC inhibitors modeled on the natural product FR235222” (Bioorg Med Chem, 2008).
